These results are taken from patent US8283312B2, “Compositions and methods for modulating body weight and treating obesity-related disorders” (The Research Foundation of State University of New York, priority 2005, dated 2012).

One assay deals with RYGB rats. Nature of the assay: Food intake and body weight of RYGB rats given test substance via implanted intraperitoneal pump. It counts as in vivo, rat. The protocol: Daily Measurements: Postoperatively, daily body weight (BW) and caloric intake were measured each morning. The PF group was given the average food intake consumed the previous day by the RYGB group. Daily changes in BW, plotted every three day, are shown in FIG. 2 and the mean change per post-operative time periods are expressed in Table 1 using the same construct as earlier reported in our previous study (6).
A pump (Model 2002, Alza Corp. Palo Alto, Calif.) was implanted i.p. in each of 5 RYGB rats thirty days after RYGB. The pump was loaded with either the PYY receptor antagonist, B11E0246 (TOCRIS, Ellisville, Mo.), or a control solution (DMSO), and released its ingredient at the rate of about 8.3 μl/day (360 nm B11E0246/Kg/day). Food intake was measured as described above.
In a second experiment, a pump was implanted i.p. in each of 5 RYGB rats thirty days after RYGB. The pump was loaded with either ghrelin, or a control solution (DMSO), and released its ingredient at the rate of 8.3 μl/day (60 ng ghrelin/Kg/day). Food intake was measured as described above.
In a third experiment, a pump was implanted i.p. in each of 5 RYGB rats thirty days after RYGB. The pump was loaded with either a combination of the PYY receptor antagonist B11E0246 and ghrelin, or a control solution (DMSO). The pump released its ingredient at the rate of 8.3 μl/day (360 nm B11E0246/Kg/day and 60 ng ghrelin/Kg/day). Food intake was measured as described above.

The next assay deals with mice. The settings on record: cited from earlier work.
Another assay deals with obese subjects. The settings on record: 12 obese subjects, as compared to 12 lean subjects; cited from earlier work.
Where [1] appears, read: physiological levels of ghrelin (60 ng/Kg/day) alone, i.p. pump, FIG. 7.

Where two headings read alike, the source gives them in different places. Where no end group is shown, it is not given here. The star is where a group is joined. Octanoyl = CCCCCCCC(=O)*

As to `N=C(N)NCCC[C@H](NC(=O)CC1(CC(=O)N2CCN(C3c4ccccc4NC(=O)c4ccccc43)CC2)CCCC1)C(=O)NCCn1c(=O)n(-c2ccccc2)n(-c2ccccc2)c1=O` (stereo partly drawn) [B11E0246], the “daily and cumulative food intake” value with RYGB rats (i.p. pump implanted thirty days after RYGB, 360 nm B11E0246/Kg/day, vs control solution (DMSO), FIG. 6) is “increased daily and cumulative food intake”.

For “PYY(3-36): functional analog of PYY; peptide consisting of amino acid 3 to 36 of PYY”, the food intake result in the assay with mice (freely feeding mice) is recorded as “unchanged”; in the assay with mice (single intraperitoneal injection, 24 h fasted mice), “significant reduction of food intake for 24 h but not for 48 h”. For the same molecule, the “decrease of ad libitum food intake per meal” value with obese subjects is recorded as 33%.

Regarding “ghrelin: peptide of 28 amino acids, in which the serine 3 residue is n-octanoylated; gut hormone that stimulates food intake (GSS(Octanoyl)FLSPEHQRVQQRKESKKPPAKLQPR; UniProt Q9UBU3 24-51, looked up)”, in the assay with RYGB rats (setting [1]), the body weight entry is reported as “did not significantly increase food intake or body weight” and the food intake entry was “did not significantly increase food intake or body weight”.
